Patent US4100346A, “Certain 7(o-amino-methyl- or methylaminomethylphenyl- or cyclohexadienyl- or thienylacetamide)-3[1-carboxymethyl-(or ethyl- or propyl-)-tetrazol-5-ylthiomethyl]-3-cephem-4-carboxylic acids” (Bristol-Myers Company, priority 1976, dated 1978)
≈ marks a conversion by molar mass, not a printed value. Like-named read-outs stand apart in the source and are kept apart here.

Key:
Staphylococcus aureus = experiment: Intramuscular treatment of systemically infected mice; format: in vivo; settings: im, read-out: PD50 /treatment
Text: (§1) Treatment of Systemically Infected Mice. The procedures were identical with those published previously [Leitner et al., BL-S640, a Cephalosporin With a Broad Spectrum of Antibacterial Activity: Bioavailability and Therapeutic Properties in Rodents, Antimicrob. Agents Chemother. 7:306-310, (1975)], except that:
(§2) (a) the hog gastric mucin used in infections with Staphylococcus aureus No. 2 was purchased from American Laboratories, Inc., Omaha, Neb. (lot No. 154163) and b) that the medium used to suspend all other organisms contained 3% (rather than 4%) hog gastric mucin (type 1701W, Wilson Laboratories, Inc., Park Forest South, Ill.).
(§3) *Animals infected with penicillinase-producing staphyloccal strains (No.
(§4) and 3) were treated 0 and 2 hours after infection; the others were treate
(§5) 1 and 3.5 hours after infection.

Streptococcus pyogenes = experiment: as above; format: in vivo; settings: im, 3.5 h, read-out: PD50 /treatment
Text: as §1, §2, §3, §4, §5

Streptococcus pneumoniae = experiment: as above; format: in vivo; settings: im, 3.5 h, read-out: PD50 /treatment
Text: as §1, §2, §3, §4, §5

Edwardsiella tarda = experiment: Growth inhibitory activity, antibiotic dilution technique; settings: read-out: Minimum inhibitory concentration
Proteus mirabilis [1] = experiment: Effect of inoculum size on susceptibility of Enterobacteriaceae
Pseudomonas aeruginosa = experiment: Growth inhibitory activity, antibiotic dilution technique; settings: read-out: Minimum inhibitory concentration
Providencia stuartii [2] = experiment: as above; settings: Providencia stuartii, read-out: percent of strains inhibited
Proteus morganii = experiment: Intramuscular treatment of systemically infected mice; format: in vivo; settings: Morganella morganii, im, 3.5 h, read-out: PD50 /treatment
Text: as §1, §2
(§6) *Animals were treated twice; 1 and 3.5 hours after infection.

Klebsiella pneumoniae = experiment: as above; format: in vivo; settings: im, 3.5 h, read-out: PD50 /treatment
Text: as §1, §2, §6

Escherichia coli = experiment: as above; format: in vivo; settings: im, 3.5 h, read-out: PD50 /treatment
Text: as §1, §2, §6

Proteus rettgeri = experiment: as above; format: in vivo; settings: Providencia rettgeri, im, Proteus rettgeri strain 4, challenge 2×10^6 -3×10^6, treated 1 and 3.5 hours after infection, read-out: PD50 /treatment
Text: as §1, §2, §6

Proteus mirabilis [3] = experiment: as above; format: in vivo; settings: im, 3.5 h, read-out: PD50 /treatment
Text: as §1, §2, §6

Proteus vulgaris = experiment: as above; format: in vivo; settings: im, 3.5 h, read-out: PD50 /treatment
Text: as §1, §2, §6

Providencia stuartii [4] = experiment: as above; format: in vivo; settings: im, 3.5 h, read-out: PD50 /treatment
Text: as §1, §2, §6

Citrobacter sp. = experiment: as above; format: in vivo; settings: im, Citrobacter sp. strain 1, challenge 5×10^6 -2×10^7, treated 1 and 3.5 hours after infection, read-out: PD50 /treatment
Text: as §1, §2, §6

Enterobacter cloacae = experiment: Effect of inoculum size on susceptibility of Enterobacteriaceae

`Cc1nnc(SCC2=C(C(=O)O)N3C(=O)[C@@H](NC(=O)Cn4cnnn4)[C@H]3SC2)s1` [Cefazolin] was tested. Which ED50 (Staphylococcus aureus; 3.5 h, Staphylococcus aureus strain 1, challenge 2 × 10^5 - 3 × 10^5, treated 1 and 3.5 hours after infection) did it give?
The ED50 was 0.09 mg/kg.

And the ED50 (Staphylococcus aureus; Staphylococcus aureus strain 2 (penicillinase-producing), challenge 1 × 10^9, treated 0 and 2 hours after infection)?
Its ED50 is 5 mg/kg.

And the ED50 (Staphylococcus aureus; Staphylococcus aureus strain 3 (penicillinase-producing), challenge 5 × 10^8 - 7 × 10^9, treated 0 and 2 hours after infection)?
Its ED50 is 23 mg/kg.

What about the ED50 (Streptococcus pyogenes; Streptococcus pyogenes strain 1, challenge 2 × 10^3 -6 × 10^3, treated 1 and 3.5 hours after infection) of the same compound?
Its ED50 is 0.57 mg/kg.

What about the ED50 (Streptococcus pyogenes; Streptococcus pyogenes strain 2, challenge 1 × 10^4 - 5 × 10^4, treated 1 and 3.5 hours after infection) of the same compound?
Its ED50 is 0.27 mg/kg.

What about the ED50 (Streptococcus pneumoniae; Streptococcus pneumoniae strain 1, challenge 2 × 10^3 - 9 × 10^3, treated 1 and 3.5 hours after infection) of the same compound?
Its ED50 is 0.39 mg/kg.

And the ED50 (Streptococcus pneumoniae; Streptococcus pneumoniae strain 2, challenge 1 × 10^4 - 3 × 10^4, treated 1 and 3.5 hours after infection)?
Its ED50 is 0.57 mg/kg.

And the MIC (Edwardsiella tarda)?
Its MIC is 0.71 µg/mL (≈ 1.56 µM).

And the MIC (Proteus mirabilis [1]; read-out: Minimum Inhibitory Concentration, Proteus mirabilis strain 1, A, Inoculum of 10^2 organisms)?
The MIC was 4 µg/mL (≈ 8.8 µM).

What about the MIC (Proteus mirabilis [1]; read-out: Minimum Inhibitory Concentration, Proteus mirabilis strain 1, B, Inoculum of 10^6 organisms) of the same compound?
Its MIC is 8 µg/mL (≈ 17.6 µM).

And the MIC (Proteus mirabilis [1]; read-out: Minimum Inhibitory Concentration, Proteus mirabilis strain 2, A, Inoculum of 10^2 organisms)?
Its MIC is 4 µg/mL (≈ 8.8 µM).

What about the MIC (Proteus mirabilis [1]; read-out: Minimum Inhibitory Concentration, Proteus mirabilis strain 2, B, Inoculum of 10^6 organisms) of the same compound?
Its MIC is 16 µg/mL (≈ 35.2 µM).

And the MIC (Proteus mirabilis [1]; read-out: Minimum Inhibitory Concentration, Proteus mirabilis strain 3, A, Inoculum of 10^2 organisms)?
The MIC was 8 µg/mL (≈ 17.6 µM).

And the MIC (Proteus mirabilis [1]; read-out: Minimum Inhibitory Concentration, Proteus mirabilis strain 3, B, Inoculum of 10^6 organisms)?
The MIC was 32 µg/mL (≈ 70.4 µM).

What about the MIC (Proteus mirabilis [1]; read-out: Minimum Inhibitory Concentration, Proteus mirabilis strain 4, A, Inoculum of 10^2 organisms) of the same compound?
Its MIC is 4 µg/mL (≈ 8.8 µM).

What about the MIC (Proteus mirabilis [1]; read-out: Minimum Inhibitory Concentration, Proteus mirabilis strain 4, B, Inoculum of 10^6 organisms) of the same compound?
The MIC was 32 µg/mL (≈ 70.4 µM).

And the MIC (Proteus mirabilis [1]; read-out: Minimum Inhibitory Concentration, Proteus mirabilis strain 5, A, Inoculum of 10^2 organisms)?
The MIC was 4 µg/mL (≈ 8.8 µM).

And the MIC (Proteus mirabilis [1]; read-out: Minimum Inhibitory Concentration, Proteus mirabilis strain 5, B, Inoculum of 10^6 organisms)?
Its MIC is 16 µg/mL (≈ 35.2 µM).

What about the MIC (Pseudomonas aeruginosa) of the same compound?
The MIC was over 125 µg/mL.

And the inhibition at 16 µg/mL (Providencia stuartii [2])?
Its inhibition at 16 µg/mL is 23%.

And the ED50 (Proteus morganii; Proteus morganii strain 1, challenge 1×10^5 -4×10^5, treated 1 and 3.5 hours after infection)?
The ED50 was 62 mg/kg.

What about the ED50 (Proteus morganii; Proteus morganii strain 2, challenge 2×10^6 -3×10^6, treated 1 and 3.5 hours after infection) of the same compound?
The ED50 was 140 mg/kg.

And the ED50 (Klebsiella pneumoniae; Klebsiella pneumoniae strain 1, challenge 4×10^4 -5×10^4, treated 1 and 3.5 hours after infection)?
Its ED50 is 16 mg/kg.

What about the ED50 (Klebsiella pneumoniae; Klebsiella pneumoniae strain 7, challenge 9×10^2 -1×10^3, treated 1 and 3.5 hours after infection) of the same compound?
The ED50 was 94 mg/kg.

What about the ED50 (Escherichia coli; Escherichia coli strain 1, challenge 2×10^5 organisms, treated 1 and 3.5 hours after infection) of the same compound?
Its ED50 is 1.9 mg/kg.

And the ED50 (Escherichia coli; Escherichia coli strain 8, challenge 6×10^5 -4×10^6, treated 1 and 3.5 hours after infection)?
The ED50 was 4.9 mg/kg.

And the ED50 (Escherichia coli; Escherichia coli strain 9, challenge 7×10^3 -2×10^4, treated 1 and 3.5 hours after infection)?
The ED50 was 5.3 mg/kg.

What about the ED50 (Proteus rettgeri) of the same compound?
The ED50 was 9.5 mg/kg.

What about the ED50 (Proteus mirabilis [3]; Proteus mirabilis strain 1, challenge 7×10^6 -9×10^6, treated 1 and 3.5 hours after infection) of the same compound?
The ED50 was 16 mg/kg.

What about the ED50 (Proteus mirabilis [3]; Proteus mirabilis strain 5, challenge 9×10^5 -3×10^6, treated 1 and 3.5 hours after infection) of the same compound?
Its ED50 is 6.2 mg/kg.

And the ED50 (Proteus mirabilis [3]; Proteus mirabilis strain 8, challenge 6×10^5 -4×10^6, treated 1 and 3.5 hours after infection)?
Its ED50 is 6.5 mg/kg.

And the ED50 (Proteus vulgaris; Proteus vulgaris strain 1, challenge 1×10^6 -2×10^6, treated 1 and 3.5 hours after infection)?
Its ED50 is 11 mg/kg.

And the ED50 (Proteus vulgaris; Proteus vulgaris strain 3, challenge 4×10^5, treated 1 and 3.5 hours after infection)?
The ED50 was 8 mg/kg.

And the ED50 (Providencia stuartii [4]; Providencia stuartii strain 2, challenge 1×10^6 ×5×10^6, treated 1 and 3.5 hours after infection)?
The ED50 was 50 mg/kg.

What about the ED50 (Providencia stuartii [4]; Providencia stuartii strain 3, challenge 2×10^7, treated 1 and 3.5 hours after infection) of the same compound?
Its ED50 is 70 mg/kg.

What about the ED50 (Citrobacter sp.) of the same compound?
The ED50 was 110 mg/kg.

What about the MIC (Enterobacter cloacae; read-out: Minimum Inhibitory Concentration, Enterobacter cloacae strain 1, A, Inoculum of 10^2 organisms) of the same compound?
Its MIC is 2 µg/mL (≈ 4.4 µM).

And the MIC (Enterobacter cloacae; read-out: Minimum Inhibitory Concentration, Enterobacter cloacae strain 1, B, Inoculum of 10^6 organisms)?
The MIC was over 250 µg/mL.

What about the MIC (Enterobacter cloacae; read-out: Minimum Inhibitory Concentration, Enterobacter cloacae strain 2, A, Inoculum of 10^2 organisms) of the same compound?
The MIC was 32 µg/mL (≈ 70.4 µM).

What about the MIC (Enterobacter cloacae; read-out: Minimum Inhibitory Concentration, Enterobacter cloacae strain 2, B, Inoculum of 10^6 organisms) of the same compound?
The MIC was over 250 µg/mL.

What about the MIC (Enterobacter cloacae; read-out: Minimum Inhibitory Concentration, Enterobacter cloacae strain 3, A, Inoculum of 10^2 organisms) of the same compound?
The MIC was 8 µg/mL (≈ 17.6 µM).

And the MIC (Enterobacter cloacae; read-out: Minimum Inhibitory Concentration, Enterobacter cloacae strain 3, B, Inoculum of 10^6 organisms)?
Its MIC is 250 µg/mL (≈ 550 µM).

What about the MIC (Enterobacter cloacae; read-out: Minimum Inhibitory Concentration, Enterobacter cloacae strain 4, A, Inoculum of 10^2 organisms) of the same compound?
Its MIC is 63 µg/mL (≈ 139 µM).

And the MIC (Enterobacter cloacae; read-out: Minimum Inhibitory Concentration, Enterobacter cloacae strain 4, B, Inoculum of 10^6 organisms)?
Its MIC is over 250 µg/mL.

What about the MIC (Enterobacter cloacae; read-out: Minimum Inhibitory Concentration, Enterobacter cloacae strain 5, A, Inoculum of 10^2 organisms) of the same compound?
The MIC was 8 µg/mL (≈ 17.6 µM).

What about the MIC (Enterobacter cloacae; read-out: Minimum Inhibitory Concentration, Enterobacter cloacae strain 5, B, Inoculum of 10^6 organisms) of the same compound?
Its MIC is over 250 µg/mL.
